The values below come from patent US20050065185A1, “Heterocyclylalkoxy-, -alkylthio- and -alkylaminobenzazole derivatives as 5-hydroxytryptamine-6 ligands” (Wyeth, priority 2001, published 2005).

In general, Ki refers to a measure of affinity in units of concentration, obtained from inhibition or displacement. One may read the melting point as the temperature of the solid-liquid transition.

Structures can show the parent of a compound that is named as a salt. Where only a bound is given, the exact number is not on record here.

T1 sequence (P50406 whole entry): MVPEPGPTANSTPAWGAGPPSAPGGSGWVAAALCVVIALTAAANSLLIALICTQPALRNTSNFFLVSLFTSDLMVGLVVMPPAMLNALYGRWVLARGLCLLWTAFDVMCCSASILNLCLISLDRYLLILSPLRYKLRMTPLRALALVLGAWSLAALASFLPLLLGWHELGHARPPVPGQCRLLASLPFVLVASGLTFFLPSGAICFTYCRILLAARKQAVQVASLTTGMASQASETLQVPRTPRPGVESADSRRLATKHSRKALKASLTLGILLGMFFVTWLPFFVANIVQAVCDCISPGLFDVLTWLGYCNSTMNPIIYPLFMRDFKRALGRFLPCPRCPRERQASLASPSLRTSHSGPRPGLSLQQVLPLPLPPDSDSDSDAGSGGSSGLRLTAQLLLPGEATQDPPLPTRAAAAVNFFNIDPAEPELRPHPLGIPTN

One data set concerns the target T1, human cloned 5-HT6 receptors (Homo sapiens, UniProt P50406).
T1 construct: expressed in transfected cells; host or cells: HeLa cells
Put plainly: 5-HT6 binding affinity, [3H]-LSD displacement on membranes of Hela cells expressing human cloned 5-HT6 receptors. On the procedure:
The affinity of test compounds for the serotonin 5-HT6 receptor is evaluated in the following manner. Cultured Hela cells expressing human cloned 5-HT6 receptors are harvested and centrifuged at low speed (1,000×g) for 10.0 min to remove the culture media. The harvested cells are suspended in half volume of fresh physiological phosphate buffered saline solution and recentrifuged at the same speed. This operation is repeated. The collected cells are then homogenized in ten volumes of 50 mM Tris.HCl (pH 7.4) and 0.5 mM EDTA. The homogenate is centrifuged at 40,000×g for 30.0 min and the precipitate is collected. The obtained pellet is resuspended in 10 volumes of Tris.HCl buffer and recentrifuged at the same speed. The final pellet is suspended in a small volume of Tris.HCl buffer and the tissue protein content is determined in aliquots of 10-25 μl volumes. Bovine Serum Albumin is used as the standard in the protein determination according to the method described in Lowry et al., J. Biol. Chem., 193:265 (1951). The volume of the suspended cell membranes is adjusted to give a tissue protein concentration of 1.0 mg/ml of suspension. The prepared membrane suspension (10 times concentrated) is aliquoted in 1.0 ml volumes and stored at −70° C. until used in subsequent binding experiments.
The reaction is allowed to proceed in the dark for 120 min at room temperature, at which time, the bound ligand-receptor complex is filtered off on a 96 well unifilter with a Packard Filtermate® 196 Harvester. The bound complex caught on the filter disk is allowed to air dry and the radioactivity is measured in a Packard TopCount® equipped with six photomultiplier detectors, after the addition of 40.0 μl Microscint®-20 scintillant to each shallow well. The unifilter plate is heat-sealed and counted in a PackardTopCount® with a tritium efficiency of 31.0%.
Binding in the presence of varying concentrations of test compound is expressed as a percentage of specific binding in the absence of test compound. The results are plotted as log % bound versus log concentration of test compound. […] A linear regression line of data points is plotted, from which the IC50 value is determined and the Ki value is determined based upon the following equation: Ki=IC50/(1+L/KD) where L is the concentration of the radioactive ligand used and KD is the dissociation constant of the ligand for the receptor, both expressed in nM.
With `O=S(=O)(c1ccccc1)n1ccc2c(OC[C@@H]3CCCN3)cccc21` [Example 3, 1-(Phenylsulfonyl)-4-[(2S)-pyrrolidin-2-ylmethoxy]-1H-indole hydrochloride], affinity was put at a Ki of 6 nM.

For `O=S(=O)(c1ccc(Cl)s1)n1ccc2c(OC[C@@H]3CCCN3)cccc21` [Example 4, 1-[(5-chlorothien-2-yl)sulfonyl]-4-[(2S)-pyrrolidin-2-ylmethoxy]-1H-indole], the Ki was determined as 7 nM. Same read-out and setting: the result for `O=S(=O)(c1ccccc1F)n1ccc2c(OC[C@@H]3CCCN3)cccc21` [Example 5, 1-[(2-fluorophenyl)sulfonyl)-4-[(2S)-pyrrolidin-2-ylmethoxy]-1H-indole] reads 2 nM; that for `O=S(=O)(c1cccc(F)c1)n1ccc2c(OC[C@@H]3CCCN3)cccc21` [Example 6, 1-[(3-fluorophenyl)sulfonyl)-4-[(2S)-pyrrolidin-2-ylmethoxy]-1H-indole], 8 nM; that for `O=S(=O)(c1ccc(F)cc1)n1ccc2c(OC[C@@H]3CCCN3)cccc21` [Example 7, 1-[(4-fluorophenyl)sulfonyl)-4-[(2S)-pyrrolidin-2-ylmethoxy]-1H-indole], 31 nM. Consider `COc1ccc(S(=O)(=O)n2ccc3c(OC[C@@H]4CCCN4)cccc32)cc1OC` [Example 8, 1-[(3,4-dimethoxyphenyl)sulfonyl)-4-[(2S)-pyrrolidin-2-ylmethoxy]-1H-indole], for which the Ki amounted to 95 nM. With `Nc1ccc(S(=O)(=O)n2ccc3c(OC[C@@H]4CCCN4)cccc32)cc1` [Example 9], the Ki is 1 nM. `O=S(=O)(c1ccccc1)n1ccc2c(OC[C@H]3CCCN3)cccc21` [Example 11, 1-(Phenylsulfonyl)-4-[(2R)-]pyrrolidin-2-ylmethoxy]-1H-indole hydrochloride]: the Ki was 106 nM.

As for `O=S(=O)(c1ccccc1)n1ncc2c(OC[C@@H]3CCCN3)cccc21` [Example 15, 1-(Phenylsulfonyl)-4-[(2S)-pyrrolidin-2-ylmethoxy]-1H-indazole trifluoroacetic acid salt], the affinity, expressed as Ki, was 7 nM. This Ki lies about 15-fold lower than the previous one. The same measure, in the same setting: the result for `O=S(=O)(c1cccc2cccnc12)n1ncc2c(OC[C@@H]3CCCN3)cccc21` [Example 16, 8-({4-[(2S)-pyrrolidin-2-ylmethoxy]-1H-indazol-1-yl}sulfonyl)quinoline] reads 85 nM; that for `O=S(=O)(c1ccccc1Cl)n1ncc2c(OC[C@@H]3CCCN3)cccc21` [Example 17, 1-[(2-chlorophenyl)sulfonyl]-4-[(2S)-pyrrolidin-2-ylmethoxy]-1H-indazole], 5 nM.

Compound `O=S(=O)(c1ccccc1F)n1ncc2c(OC[C@@H]3CCCN3)cccc21` [Example 18, 1-[(2-fluorophenyl)sulfonyl]-4-[(2S)-pyrrolidin-2-ylmethoxy]-1H-indazole] gave an inhibitory constant (Ki) of 8 nM. The same measure, in the same setting: the result for `O=S(=O)(c1ccc(Cl)s1)n1ncc2c(OC[C@@H]3CCCN3)cccc21` [Example 19, 1-[(5-chlorothien-2-yl)sulfonyl]-4-[(2S)-pyrrolidin-2-ylmethoxy]-1H-indazole] reads 5 nM; that for `Nc1ccc(S(=O)(=O)n2ncc3c(OC[C@@H]4CCCN4)cccc32)cc1` [Example 20, 4-({4-[(2S)-pyrrolidin-2-ylmethoxy}-1H-indazol-1-yl}sulfonyl)aniline], 9 nM. Same read-out and setting: the result for `Nc1ccc(S(=O)(=O)n2ncc3c(OC[C@@H]4CCCN4)cccc32)cc1Cl` [Example 21, 2-chloro-4-({4-[(2S)-pyrrolidin-2-ylmethoxy]-1H-indazol-1-yl}sulfonyl)aniline] reads 16 nM.

System in another data set: not given
Assay: not given
The compound `O=S(=O)(c1ccc(Cl)s1)n1ccc2c(OC[C@@H]3CCCN3)cccc21` (as salt: hydrochloride) [Example 4, 1-[(5-chlorothien-2-yl)sulfonyl]-4-[(2S)-pyrrolidin-2-ylmethoxy]-1H-indole] had a melting point of 204 to 206 °C.

`O=S(=O)(c1ccccc1F)n1ccc2c(OC[C@@H]3CCCN3)cccc21` (as salt: hydrochloride) [Example 5, 1-[(2-fluorophenyl)sulfonyl)-4-[(2S)-pyrrolidin-2-ylmethoxy]-1H-indole] showed a melting point of 153 to 155 °C. The same measure, in the same setting: the result for `O=S(=O)(c1cccc(F)c1)n1ccc2c(OC[C@@H]3CCCN3)cccc21` (as salt: hydrochloride) [Example 6, 1-[(3-fluorophenyl)sulfonyl)-4-[(2S)-pyrrolidin-2-ylmethoxy]-1H-indole] reads 160 to 162 °C; that for `O=S(=O)(c1ccc(F)cc1)n1ccc2c(OC[C@@H]3CCCN3)cccc21` (as salt: hydrochloride) [Example 7, 1-[(4-fluorophenyl)sulfonyl)-4-[(2S)-pyrrolidin-2-ylmethoxy]-1H-indole], 258 °C (dec.); that for `COc1ccc(S(=O)(=O)n2ccc3c(OC[C@@H]4CCCN4)cccc32)cc1OC` (as salt: hydrochloride) [Example 8, 1-[(3,4-dimethoxyphenyl)sulfonyl)-4-[(2S)-pyrrolidin-2-ylmethoxy]-1H-indole], 115 °C (dec.). The same measure, in the same setting: the result for `Nc1ccc(S(=O)(=O)n2ccc3c(OC[C@@H]4CCCN4)cccc32)cc1` (as salt: hydrochloride) [Example 9] reads 150 °C (dec.); that for `O=S(=O)(c1ccccc1Cl)n1ncc2c(OC[C@@H]3CCCN3)cccc21` (as salt: hydrochloride) [Example 17, 1-[(2-chlorophenyl)sulfonyl]-4-[(2S)-pyrrolidin-2-ylmethoxy]-1H-indazole], > 255 °C (dec.). Still for that read-out and setting: the result for `O=S(=O)(c1ccccc1F)n1ncc2c(OC[C@@H]3CCCN3)cccc21` (as salt: hydrochloride) [Example 18, 1-[(2-fluorophenyl)sulfonyl]-4-[(2S)-pyrrolidin-2-ylmethoxy]-1H-indazole] reads 145 to 148 °C. `O=S(=O)(c1ccc(Cl)s1)n1ncc2c(OC[C@@H]3CCCN3)cccc21` (as salt: hydrochloride) [Example 19, 1-[(5-chlorothien-2-yl)sulfonyl]-4-[(2S)-pyrrolidin-2-ylmethoxy]-1H-indazole] came in with a melting point of 195 °C.

`Nc1ccc(S(=O)(=O)n2ncc3c(OC[C@@H]4CCCN4)cccc32)cc1` (as salt: hydrochloride) [Example 20, 4-({4-[(2S)-pyrrolidin-2-ylmethoxy}-1H-indazol-1-yl}sulfonyl)aniline] registered a melting point of 150 to 155 °C.

Consider `Nc1ccc(S(=O)(=O)n2ncc3c(OC[C@@H]4CCCN4)cccc32)cc1Cl` (as salt: hydrochloride) [Example 21, 2-chloro-4-({4-[(2S)-pyrrolidin-2-ylmethoxy]-1H-indazol-1-yl}sulfonyl)aniline], for which the melting point was 220 °C (dec.). The compound `O=S(=O)(c1cccc2cccnc12)n1ncc2c(OC[C@@H]3CCCN3)cccc21` [Example 16, 8-({4-[(2S)-pyrrolidin-2-ylmethoxy]-1H-indazol-1-yl}sulfonyl)quinoline] showed a melting point of 217 to 218 °C.
